ChEMBL document CHEMBL3044686, “Synthesis and biological evaluation of some new quinazolin-4(3H)-ones derivatives as anticonvulsants” (Med Chem Res, 2013)
Calls of active or inactive are those of the source. No cut-off for these calls is given here.

Key:
Mus musculus [1] = assay: Induction of CNS depressant activity in albino CF-1 Mus musculus (mouse) assessed as increase in immobility at 100 mg/kg, ip measured after 30 min by Porsolt's force swim pool method; assay type: organism-based, Central nervous system; set-up: dose 100 mg/kg, route intraperitoneal; details: in vivo, 0.5 h
Mus musculus [2] = assay: Induction of CNS depressant activity in albino CF-1 Mus musculus (mouse) assessed as duration of immobility at 100 mg/kg, ip measured after 30 min by Porsolt's force swim pool method (reference value: 52.7 +/-0.70 secs); assay type: organism-based, Central nervous system; set-up: dose 100 mg/kg, route intraperitoneal; details: in vivo, 0.5 h
Mus musculus [3] = assay: Toxicity in albino CF-1 Mus musculus (mouse) assessed as motor impairment at 300 mg/kg measured after 4 hr by rotarod test; assay type: organism-based; set-up: dose 300 mg/kg; details: in vivo
Mus musculus [4] = assay: Toxicity in albino CF-1 Mus musculus (mouse) assessed as motor impairment at 300 mg/kg measured after 0.5 hr by rotarod test; assay type: organism-based; set-up: dose 300 mg/kg; details: in vivo
Mus musculus [5] = organism: Mus musculus; assay: Anticonvulsant activity in albino CF-1 Mus musculus (mouse) assessed as minimum dose required to protect half or more animals against maximal electroshock-induced seizures measured after 4 hr by electroshock seizure method; assay type: functional; details: albino CF-1, 4 h, read-out: MED
Mus musculus [6] = organism: Mus musculus; assay: Anticonvulsant activity in albino CF-1 Mus musculus (mouse) assessed as minimum dose required to protect half or more animals against maximal electroshock-induced seizures measured after 0.5 hr by electroshock seizure method; assay type: functional; details: albino CF-1, 0.5 h, read-out: MED
Mus musculus [7] = assay: Anticonvulsant activity in albino CF-1 Mus musculus (mouse) assessed as protection against maximal electroshock-induced seizures at 300 mg/kg measured after 0.5 hr by electroshock seizure method; assay type: functional, organism-based; set-up: dose 300 mg/kg
Mus musculus [8] = organism: Mus musculus; assay: Toxicity in albino CF-1 Mus musculus (mouse) assessed as minimum dose required to induce motor impairment in half or more animals measured after 4 hr by rotarod test; assay type: organism-based; details: in vivo
Mus musculus [9] = organism: Mus musculus; assay: Toxicity in albino CF-1 Mus musculus (mouse) assessed as minimum dose required to induce motor impairment in half or more animals measured after 0.5 hr by rotarod test; assay type: organism-based; details: in vivo

Activity (Mus musculus [1]) [%]	Time (Mus musculus [2]) [s]	SMILES	Activity (Mus musculus [3])	Activity (Mus musculus [4])	minimal effective dose (Mus musculus [5]) [mg/kg]	minimal effective dose (Mus musculus [6]) [mg/kg]	Activity (Mus musculus [7])	MED (Mus musculus [8]) [mg/kg]	MED (Mus musculus [9]) [mg/kg]
29.6	68.3	CCOc1cccc(/C=N/n2c(-c3ccccc3)nc3ccccc3c2=O)c1	Non-toxic	Non-toxic	100	100			
52.18	80.2	CCCOc1cccc(/C=N/n2c(-c3ccccc3)nc3ccccc3c2=O)c1	Non-toxic	Non-toxic	30	100			
110.81	111.1	C=CCCOc1cccc(/C=N/n2c(-c3ccccc3)nc3ccccc3c2=O)c1	Non-toxic	Non-toxic	100	300			
		O=c1c2ccccc2nc(-c2ccccc2)n1/N=C/c1cccc(O)c1	Non-toxic	Non-toxic	100		inactive		
		CCCCOc1cccc(/C=N/n2c(-c3ccccc3)nc3ccccc3c2=O)c1	Non-toxic	Non-toxic	100	300			
		COc1cccc(/C=N/n2c(-c3ccccc3)nc3ccccc3c2=O)c1	Non-toxic	Non-toxic	100		inactive		
		CC(C)Oc1cccc(/C=N/n2c(-c3ccccc3)nc3ccccc3c2=O)c1	Non-toxic	Non-toxic	300	300			
		O=c1c2ccccc2nc(-c2ccccc2)n1/N=C/c1cccc(OCc2ccccc2)c1		Non-toxic	300		inactive	300	
		C=CCOc1cccc(/C=N/n2c(-c3ccccc3)nc3ccccc3c2=O)c1	Non-toxic	Non-toxic	300	300			
		O=C1NC(=O)C(c2ccccc2)(c2ccccc2)N1 [PHENYTOIN]		Non-toxic	30	30		100	
56.35	82.4	NC(=O)N1c2ccccc2C=Cc2ccccc21 [CARBAMAZEPINE]			30	30		100	300
